For test [1], the target named is T1, NLRP3 (Homo sapiens, UniProt Q96P20). Put plainly: THP-1 cells pyroptosis assay (LPS priming, nigericin, resazurin read-out). More on the design: Seed THP-1 cells (25,000 cells/well) containing 1.0 μg/ml LPS in 40 μl of RPMI medium; host or cells: THP-1 cells, LPS-primed, nigericin-stimulated. To be noted: 1.0 μg/ml LPS, 3 hrs compound, nigericin 5 μM 1 hr. It counts as cell-based. Here is the method: THP-1 cells (ATCC #TIB-202) were grown in RPMI containing L-glutamine (Gibco #11835) supplemented with 1 mM sodium pyruvate (Sigma #S8636) and penicillin (100 units/ml)/streptomycin (0.1 mg/ml) (Sigma #P4333) in 10% Fetal Bovine Serum (FBS) (Sigma #F0804). The cells were routinely passaged and grown to confluency (˜10^6 cells/ml). On the day of the experiment, THP-1 cells were harvested and resuspended into RPMI medium (without FBS). The cells were then counted and viability (>90%) checked by Trypan blue (Sigma #T8154). Appropriate dilutions were made to give a concentration of 625,000 cells/ml. To this diluted cell solution was added LPS (Sigma #L4524) to give a […] Final Assay Concentration (FAC). 40 μl of the final preparation was aliquoted into each well of a 96-well plate. The plate thus prepared was used for compound screening. The following method step-by-step assay was followed for compound screening. • 1. Seed THP-1 cells (25,000 cells/well) containing 1.0 μg/ml LPS in 40 μl of RPMI medium (without FBS) in 96-well, black walled, clear bottom cell culture plates coated with poly-D-lysine (VWR #734-0317) • 2. Add 5 μl compound (8 points half-log dilution, with 10 μM top dose) or vehicle (DMSO 0.1% FAC) to the appropriate wells • 3. Incubate for 3 hrs at 37° C., 5% CO2 • 4. Add 5 μl nigericin (Sigma #N7143) (FAC 5 μM) to all wells • 5. Incubate for 1 hr at 37° C., 5% CO2 • 6. At the end of the incubation period, spin plates at 300×g for 3 mins and remove supernatant • 7. Then add 50 μl of resazurin (Sigma #R7017) (FAC 100 μM resazurin in RPMI medium without FBS) and incubate plates for a further 1-2 hrs at 37° C. and 5% CO2 • 8. Plates were read in an Envision reader at Ex 560 nm and Em 590 nm • 9. IC50 data is fitted to a non-linear regression equation (log inhibitor vs response-variable slope 4-parameters) The results of the pyroptosis assay are summarised in Table 1 below as THP IC50.
T1 sequence (Q96P20 whole entry): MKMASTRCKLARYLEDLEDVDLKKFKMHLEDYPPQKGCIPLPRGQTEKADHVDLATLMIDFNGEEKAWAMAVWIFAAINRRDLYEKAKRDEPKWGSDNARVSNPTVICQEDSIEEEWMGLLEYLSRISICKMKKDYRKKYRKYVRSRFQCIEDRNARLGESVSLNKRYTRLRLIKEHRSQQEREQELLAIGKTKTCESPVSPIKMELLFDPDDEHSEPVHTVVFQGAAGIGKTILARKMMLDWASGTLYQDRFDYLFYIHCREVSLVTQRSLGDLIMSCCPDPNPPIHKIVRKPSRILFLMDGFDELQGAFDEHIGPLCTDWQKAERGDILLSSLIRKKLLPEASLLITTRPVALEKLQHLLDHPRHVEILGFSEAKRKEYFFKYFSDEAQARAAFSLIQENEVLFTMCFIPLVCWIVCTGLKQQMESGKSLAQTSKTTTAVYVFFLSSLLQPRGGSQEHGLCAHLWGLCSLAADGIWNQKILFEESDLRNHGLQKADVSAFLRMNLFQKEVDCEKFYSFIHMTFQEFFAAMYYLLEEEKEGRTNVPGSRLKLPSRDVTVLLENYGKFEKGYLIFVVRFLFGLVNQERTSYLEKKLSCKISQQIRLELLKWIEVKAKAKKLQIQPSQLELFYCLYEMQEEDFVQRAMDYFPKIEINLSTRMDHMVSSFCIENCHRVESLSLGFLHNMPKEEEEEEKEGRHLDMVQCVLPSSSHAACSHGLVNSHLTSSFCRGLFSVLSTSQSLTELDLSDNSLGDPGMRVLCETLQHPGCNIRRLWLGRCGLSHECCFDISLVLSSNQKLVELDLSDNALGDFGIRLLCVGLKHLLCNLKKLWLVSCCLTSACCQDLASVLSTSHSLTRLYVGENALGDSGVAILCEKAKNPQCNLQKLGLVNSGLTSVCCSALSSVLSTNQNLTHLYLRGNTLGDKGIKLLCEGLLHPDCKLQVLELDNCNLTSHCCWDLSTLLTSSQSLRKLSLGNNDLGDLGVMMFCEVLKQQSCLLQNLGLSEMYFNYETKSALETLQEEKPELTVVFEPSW

In test [2] the target is T1, NLRP3. Put plainly: Human whole blood IL-1β release assay (LPS, nigericin, AlphaLisa). It counts as cell-based. To be noted: 1 μg/ml LPS, 3 hrs compound, nigericin 10 μM 1 hr, read-out: HWB IC50. Also on record: Plate out 80 μl of whole blood containing 1 μg/ml of LPS in 96-well, clear bottom cell culture plate; from tissue; host or cells: human whole blood from healthy donors, LPS-primed, nigericin-stimulated. Here is the method:
For systemic delivery, the ability to inhibit NLRP3 when the compounds are present within the bloodstream is of great importance. For this reason, the NLRP3 inhibitory activity of a number of compounds in human whole blood was investigated in accordance with the following protocol.
Human whole blood in Li-heparin tubes was obtained from healthy donors from a volunteer donor panel. • 1. Plate out 80 μl of whole blood containing 1 μg/ml of LPS in 96-well, clear bottom cell culture plate (Corning #3585) • 2. Add 10 μl compound (8 points half-log dilution with 10 μM top dose) or vehicle (DMSO 0.1% FAC) to the appropriate wells • 3. Incubate for 3 hrs at 37° C., 5% CO2 • 4. Add 10 μl nigericin (Sigma #N7143) (10 μM FAC) to all wells • 5. Incubate for 1 hr at 37° C., 5% CO2 • 6. At the end of the incubation period, spin plates at 300×g for 5 mins to pellet cells and remove 20 μl of supernatant and add to 96-well v-bottom plates for IL-1β analysis (note: these plates containing the supernatants can be stored at −80° C. to be analysed at a later date) • 7. IL-1β was measured according to the manufacturer protocol (Perkin Elmer-AlphaLisa IL-1 Kit AL220F-5000) • 8. IC50 data is fitted to a non-linear regression equation (log inhibitor vs response-variable slope 4-parameters)

A word on the IC50: it is the concentration needed to halve the response being measured.

On to `O=C(OCc1cccnc1)c1nnc(Nc2c3c(cc4c2CCC4)CCC3)[nH]1` [Example 2, pyridin-3-ylmethyl 5-((1,2,3,5,6,7-hexahydro-s-indacen-4-yl)amino)-4H-1,2,4-triazole-3-carboxylate], for which the half-inhibitory concentration (IC50) in test [1] is at most 10 µM. In the case of `COC(=O)c1nnc(Nc2c3c(cc4c2CCC4)CCC3)[nH]1` [Example 7], in test [1], the IC50 was at most 2 µM. Take `COC(=O)c1nnc(Nc2c3c(cc(C)c2-c2ccnc(OC)c2)CCC3)[nH]1` [Example 5]: the IC50 in test [1] was at most 5 µM.

On to `O=C(OCc1ccccc1)c1nnc(Nc2c3c(cc4c2CCC4)CCC3)[nH]1` [Example 4], for which the IC50 in test [1] is at most 5 µM. Same read-out and setting: for `CC(C)OC(=O)c1nnc(Nc2c3c(cc4c2CCC4)CCC3)[nH]1` [Example 6] the value was at most 10 µM; for `CCOC(=O)c1nnc(Nc2c(-c3ccnc(OC)c3)ccc3c2CCC3)[nH]1` [Example 8], at most 5 µM.

Take `CCOC(=O)c1nnc(Nc2c3c(cc4c2CCC4)CCC3)[nH]1` [Example 1, ethyl 5-((1,2,3,5,6,7-hexahydro-s-indacen-4-yl)amino)-4H-1,2,4-triazole-3-carboxylate]: the IC50 is at most 5 µM in test [2] and at most 2 µM in test [1]. For `COC(=O)c1nnc(Nc2c(-c3ccnc(OC4CCN(C)CC4)c3)ccc3c2CCC3)[nH]1` [Example 3], the IC50 in test [1] is at most 10 µM.

The record behind these values is US20220289692A1, “NLRP3 INHIBITORS” (Inflazome Limited, priority 2019, published 2022).
